Measurements published in patent publication US20150105252A1, “SUBSTITUTED PYRAZOLES AS HERBICIDES” (E I DU PONT DE NEMOURS AND COMPANY, priority 2013, published 2015).

Experiments:
Assay in all cases: Test C postemergence
ryegrass, Italian = format: in vivo, Lolium multiflorum; conditions: postemergence
Summary of the method: (§1)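 Pre- and postemergence greenhouse screen; vehicle was a non-phytotoxic solvent mix with surfactant. Preemergence: treatment applied right after sowing into loam and sand. Postemergence: treated at 1–4 leaves. Visual rating at 13–15 days, 100 = complete control.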

nutsedge, yellow = format: in vivo, Cyperus esculentus
Summary of the method: as §1

chickweed = format: in vivo, Stellaria media
Summary of the method: as §1

pigweed = format: in vivo, Amaranthus retroflexus; conditions: postemergence
Summary of the method: as §1

velvetleaf = format: in vivo, Abutilon theophrasti; conditions: postemergence
Summary of the method: as §1

crabgrass, large = format: in vivo, Digitaria sanguinalis
Summary of the method: as §1

kochia = format: in vivo, Kochia scoparia
Summary of the method: as §1

galium = format: in vivo, Galium aparine
Summary of the method: as §1

johnsongrass = format: in vivo, Sorghum halepense
Summary of the method: as §1

foxtail, giant = format: in vivo, Setaria faberii
Summary of the method: as §1

corn = format: in vivo, Zea mays
Summary of the method: as §1

waterhemp = format: in vivo, Amaranthus rudis; conditions: postemergence
Summary of the method: as §1

ragweed = format: in vivo, Ambrosia elation; conditions: postemergence
Summary of the method: as §1

morningglory = format: in vivo, Ipomoea coccinea
Summary of the method: as §1

blackgrass = format: in vivo, Alopecurus myosuroides
Summary of the method: as §1

oilseed rape = format: in vivo, Brassica napus; conditions: postemergence
Summary of the method: as §1

oat, wild = format: in vivo, Avena fatua
Summary of the method: as §1

soybean = format: in vivo, Glycine max; conditions: postemergence
Summary of the method: as §1

[1] = 250 g ai/ha, scale 0 to 100 (0 no effect, 100 complete control)
[2] = 125 g ai/ha, scale 0 to 100, 0 no effect, 100 complete control
[3] = Postemergence, 31 g ai/ha, visually evaluated after 13 to 15 days
[4] = postemergence, 62 g ai/ha, scale 0 to 100
[5] = postemergence, 250 g ai/ha, scale 0 to 100 (0 no effect, 100 complete control)
[6] = postemergence, 125 g ai/ha, scale 0 to 100, 0 no effect, 100 complete control

CCCc1cc(C(=O)NOCC)nn1Cc1ccnc(C(F)(F)F)c1 [Compound 185]
Plant response rating, Ryegrass, Italian (ryegrass, Italian; [1]): 0 | Plant response rating, Ryegrass, Italian (ryegrass, Italian; [2]): 0 | Plant response rating (scale of 0 to 100 where 0 is no effect and 100 is complete control), Nutsedge, Yellow (nutsedge, yellow; [3]): 0 | Nutsedge, Yellow plant response rating (nutsedge, yellow; [4]): 0 | Plant response rating, Nutsedge, Yellow (nutsedge, yellow; [5]): 10 | Plant response rating, Nutsedge, Yellow (nutsedge, yellow; [6]): 5 | Plant response rating (scale of 0 to 100 where 0 is no effect and 100 is complete control), Chickweed (chickweed; [3]): 70 | Chickweed plant response rating (chickweed; [4]): 80 | Plant response rating, Chickweed (chickweed; [5]): 85 | Plant response rating, Chickweed (chickweed; [6]): 85 | Pigweed plant response rating (pigweed; 62 g ai/ha, scale 0 to 100): 50 | Plant response rating, Pigweed (pigweed; [1]): 85 | Plant response rating, Pigweed (pigweed; [2]): 75 | Plant response rating, Velvetleaf (velvetleaf; [1]): 35 | Velvetleaf plant response rating (velvetleaf; scale 0 to 100): 25 | Plant response rating (scale of 0 to 100 where 0 is no effect and 100 is complete control), Crabgrass, Large (crabgrass, large; [3]): 5 | Crabgrass, Large plant response rating (crabgrass, large; [4]): 5 | Plant response rating, Crabgrass, Large (crabgrass, large; [5]): 45 | Plant response rating, Crabgrass, Large (crabgrass, large; [6]): 5 | Plant response rating (scale of 0 to 100 where 0 is no effect and 100 is complete control), Kochia (kochia; [3]): 50 | Kochia plant response rating (kochia; [4]): 60 | Plant response rating, Kochia (kochia; [5]): 80 | Plant response rating, Kochia (kochia; [6]): 75 | Plant response rating (scale of 0 to 100 where 0 is no effect and 100 is complete control), Galium (galium; [3]): 40 | Galium plant response rating (galium; [4]): 40 | Plant response rating, Galium (galium; [5]): 70 | Plant response rating, Galium (galium; [6]): 45 | Plant response rating (scale of 0 to 100 where 0 is no effect and 100 is complete control), Johnsongrass (johnsongrass; [3]): 0 | Johnsongrass plant response rating (johnsongrass; [4]): 0 | Plant response rating, Johnsongrass (johnsongrass; [5]): 5 | Plant response rating, Johnsongrass (johnsongrass; [6]): 0 | Plant response rating (scale of 0 to 100 where 0 is no effect and 100 is complete control), Foxtail, Giant (foxtail, giant; [3]): 5 | Foxtail, Giant plant response rating (foxtail, giant; [4]): 5 | Plant response rating, Foxtail, Giant (foxtail, giant; [5]): 5 | Plant response rating, Foxtail, Giant (foxtail, giant; [6]): 10 | Plant response rating (scale of 0 to 100 where 0 is no effect and 100 is complete control), Corn (corn; [3]): 5 | Corn plant response rating (corn; [4]): 5 | Plant response rating, Corn (corn; [5]): 65 | Plant response rating, Corn (corn; [6]): 5 | Plant response rating, Waterhemp (waterhemp; [1]): 85 | Waterhemp plant response rating (waterhemp; scale 0 to 100): 35 | Plant response rating, Ragweed (ragweed; [1]): 30 | Plant response rating, Ragweed (ragweed; [2]): 40 | Plant response rating (scale of 0 to 100 where 0 is no effect and 100 is complete control), Morningglory (morningglory; [3]): 40 | Morningglory plant response rating (morningglory; [4]): 45 | Plant response rating, Morningglory (morningglory; [5]): 75 | Plant response rating, Morningglory (morningglory; [6]): 85 | Plant response rating (scale of 0 to 100 where 0 is no effect and 100 is complete control), Blackgrass (blackgrass; [3]): 0 | Blackgrass plant response rating (blackgrass; [4]): 0 | Plant response rating, Blackgrass (blackgrass; [5]): 5 | Plant response rating, Blackgrass (blackgrass; [6]): 5 | Oilseed Rape plant response rating (oilseed rape; 62 g ai/ha, scale 0 to 100): 40 | Plant response rating, Oilseed Rape (oilseed rape; [1]): 70 | Plant response rating, Oilseed Rape (oilseed rape; [2]): 50 | Plant response rating (scale of 0 to 100 where 0 is no effect and 100 is complete control), Oat, Wild (oat, wild; [3]): 5 | Oat, Wild plant response rating (oat, wild; [4]): 10 | Plant response rating, Oat, Wild (oat, wild; [5]): 15 | Plant response rating, Oat, Wild (oat, wild; [6]): 10 | Plant response rating, Soybean (soybean; [1]): 50 | Soybean plant response rating (soybean; [2]): 40
